Experimental data taken from US12410160B2 (Gilead Sciences, Inc., priority 2021, dated 2025).
Where two headings read alike, the source gives them in different places.

Assays:
[1] = target: human KHK-C (Homo sapiens (Human), UniProt P50053); assay: KHK Biochemical Assay (IC50), ADP-Glo, KHK-C; conditions: average of at least two separate assays
Method in brief: (§1)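 Luminescent ADP-Glo read-out of ADP made by His-tagged KHK (BL21 (DE3) expression, Ni-NTA). Enzyme and compound sat together 30 min before ATP/fructose addition, then reacted 4 h at RT in Hepes pH 7.4 buffer with KCl, MgCl2, Triton-X. Quench 1 h, detection 1 h.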

[2] = target: human KHK-A (Homo sapiens (Human), UniProt P50053); assay: KHK Biochemical Assay (IC50), ADP-Glo, KHK-A; conditions: average of at least two separate assays
Method in brief: as §1

[3] = tested on: HepG2 cells; assay: F1P Cell-Based Assay (EC50), 13C6-fructose-1-phosphate in HepG2 cells (cell culture medium or 50% human plasma)
[4] = target: human OATP1B1 (Homo sapiens (Human), UniProt Q9Y6L6); assay: In Vitro Inhibition Assessment with Human OATP1B1 Transporter; format: in vitro ADME; conditions: HEK293-OATP1B1 cells, probe substrate pravastatin
Method in brief: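 HEK293-OATP1B1 and mock cells were preincubated 15 min with compound in HBSS. They were then coincubated 5 min with compound plus pravastatin (0.4% DMSO final), and intracellular substrate was quantified by LC-MS/MS. Mock-corrected uptake relative to solvent gave percentage activity, from which IC50 was fitted.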

[5] = target: KHK-C expressed in NRK-52E cells (Homo sapiens (Human), UniProt P50053); assay: KHK-C Cell-based Assay (EC50), NRK CTG, fructose-mediated ATP-depletion
[6] = pKa analysis by capillary electrophoresis (pKa PRO Analyzer, co-solvent method); format: physicochemical; conditions: co-solvent method (60% to 30% methanol buffers); for 1st pKa: pH range 1.7-11.2; for pKa: methanol/aqueous co-solvent buffers
Protocol: The 10 mM DMSO stock solutions of test articles (TAs) were diluted 100-fold with either 2 mM HCl or 2 mM NaOH and methanol. The final concentration of methanol was 60%, TA concentration was 100 μM, and DMSO concentration was 1%. The TAs were transferred into 24 consecutive wells of a 96-well plate for analysis using the co-solvent method. […] All data was obtained using a pKa. PRO Analyzer (AATI, Ankey, IA) by performing four consecutive CE runs from 60% to 30% co-solvent buffers. Norfloxacin was used as a daily performance-indicating standard. The pKa values were predicted by using pKa. Estimator® software (AATI, Ankey, IA) by relating molecular weight of the TA to its mobility.

[7] = Homo sapiens, HepG2, HepG2 cells, 50% human plasma, read-out: F1P 50% HP EC50
[8] = Homo sapiens, HepG2, read-out: F1P 10% FBS EC50, HepG2 cells, cell culture medium (10% FBS)
[9] = pH range 1.7-11.2, read-out: 1st pKa
[10] = pH range 1.7-11.2, read-out: 2nd pKa

Sequence of human OATP1B1 (Q9Y6L6 whole entry): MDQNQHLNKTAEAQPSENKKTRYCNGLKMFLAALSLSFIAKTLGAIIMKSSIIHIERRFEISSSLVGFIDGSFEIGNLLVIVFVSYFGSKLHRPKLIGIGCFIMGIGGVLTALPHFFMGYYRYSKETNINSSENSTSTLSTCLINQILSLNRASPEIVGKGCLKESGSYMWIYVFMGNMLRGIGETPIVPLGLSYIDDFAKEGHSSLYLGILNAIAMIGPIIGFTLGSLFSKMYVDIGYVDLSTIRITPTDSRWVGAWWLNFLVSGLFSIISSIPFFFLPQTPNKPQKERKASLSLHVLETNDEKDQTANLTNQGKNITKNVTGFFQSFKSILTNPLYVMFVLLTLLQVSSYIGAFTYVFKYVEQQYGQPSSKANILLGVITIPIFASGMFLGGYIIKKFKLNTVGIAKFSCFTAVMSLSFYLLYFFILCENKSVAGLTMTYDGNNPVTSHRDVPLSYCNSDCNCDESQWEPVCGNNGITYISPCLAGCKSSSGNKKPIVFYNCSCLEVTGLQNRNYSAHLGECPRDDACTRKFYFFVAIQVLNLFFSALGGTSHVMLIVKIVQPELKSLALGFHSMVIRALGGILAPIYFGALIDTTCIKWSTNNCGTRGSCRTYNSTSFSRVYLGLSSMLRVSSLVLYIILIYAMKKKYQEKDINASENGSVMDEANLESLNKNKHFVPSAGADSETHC
Sequence of KHK-C expressed in NRK-52E cells (P50053 whole entry): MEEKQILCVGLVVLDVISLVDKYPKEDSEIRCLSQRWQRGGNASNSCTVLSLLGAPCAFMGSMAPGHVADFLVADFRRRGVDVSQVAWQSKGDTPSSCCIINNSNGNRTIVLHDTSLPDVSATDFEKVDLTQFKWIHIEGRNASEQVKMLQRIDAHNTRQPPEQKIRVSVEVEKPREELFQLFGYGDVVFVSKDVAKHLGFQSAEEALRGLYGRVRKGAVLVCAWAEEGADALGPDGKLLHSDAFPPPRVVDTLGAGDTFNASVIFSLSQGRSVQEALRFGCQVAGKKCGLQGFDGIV
Sequence of human KHK-C (P50053 whole entry): as above
Sequence of human KHK-A (P50053 other isoform, or with tags, fused parts or gaps): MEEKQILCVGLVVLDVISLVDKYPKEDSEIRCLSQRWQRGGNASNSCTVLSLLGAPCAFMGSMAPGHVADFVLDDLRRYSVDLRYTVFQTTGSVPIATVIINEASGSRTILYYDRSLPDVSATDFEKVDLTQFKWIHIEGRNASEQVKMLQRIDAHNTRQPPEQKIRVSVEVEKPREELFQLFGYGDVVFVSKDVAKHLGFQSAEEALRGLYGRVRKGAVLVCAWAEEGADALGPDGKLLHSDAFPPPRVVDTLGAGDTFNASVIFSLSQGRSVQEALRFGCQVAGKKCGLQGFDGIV

Structure (SMILES) | IC50 ([1]; ADP-Glo) [nM] | IC50 ([2]; ADP-Glo) [nM] | EC50 [3, 7] [nM] | EC50 [3, 8] [nM] | IC50 [4] [nM] | EC50 [5] [nM] | pKa [6, 9] | further results
C[C@H]1CCN1c1nc2c(c(-c3cccc([C@H]4C[C@@H]4C(=O)O)c3)n1)CCC2 (single isomer, unassigned) [Example 89] | 3.3 | 6 | 311 | 35.7 | 160 | 37 |  | 
C[C@H]1[C@H](O)CN1c1nc(-c2ccc3c(c2)CC[C@@]32COC(=O)N2)c2c(n1)C(F)(F)CC2 (single isomer, unassigned) [Example 476] |  |  | 37.5 | 23.5 | 5980 | 9.5 |  | IC50 [1]: 0.2 nM; IC50 [2]: 10.9 nM
C[C@H]1[C@H](O)CN1c1nc(-c2ccc3c(c2)OC[C@@]32COC(=O)N2)c2c(n1)C(F)(F)CC2 (single isomer, unassigned) [Example 483] |  |  | 18.4 | 5.3 | 17400 | 5.4 |  | IC50 [1]: 0.2 nM; IC50 [2]: 4.6 nM
C[C@H]1[C@H](O)CN1c1nc(-c2ccc3c(c2)OC[C@@]32COCC(=O)N2)c2c(n1)C(F)(F)CC2 (single isomer, unassigned) [Example 499] |  |  |  |  | 24300 |  |  | IC50 [1]: 0.2 nM; IC50 [2]: 2.4 nM; EC50 ([3]; HepG2 cells, 50% human plasma, read-out: F1P 50% HP EC50): 6.4 nM; EC50 ([3]; read-out: F1P 10% FBS EC50, HepG2 cells, cell culture medium (10% FBS)): 3 nM; EC50 ([5]; read-out: NRK CTG EC50, NRK-52E cells, Cell-Titer Glo, 25 mM fructose): 1.6 nM
C[C@H]1[C@H](O)CN1c1nc(-c2ccc([C@@]3(N)CCS(=O)(=O)C3)cc2)c2c(n1)C(F)(F)CC2 (single isomer, unassigned) [Example 794] | 4.4 |  |  |  |  |  |  | 1st pKa [6]: 4.9
C[C@H]1CCN1c1nc2c(c(-c3cnsc3)n1)CCC2 [Example 14, (S)-4-(2-(2-methylazetidin-1-yl)-6,7-dihydro-5H-cyclopenta[d]pyrimidin-4-yl)isothiazole] | 104 | 121 |  |  |  |  | 4.28 | 
C[C@H]1CCN1c1nc2c(c(-c3cccnc3)n1)CCC2 [Example 15, (S)-2-(2-methylazetidin-1-yl)-4-(pyridin-3-yl)-6,7-dihydro-5H-cyclopenta[d]pyrimidine] | 165 | 148 |  |  |  |  | 3.57 | pKa [6, 10]: 5.44
C[C@H]1CCN1c1nc2c(c(-c3cncnc3)n1)CCC2 [Example 16, (S)-2-(2-methylazetidin-1-yl)-4-(pyrimidin-5-yl)-6,7-dihydro-5H-cyclopenta[d]pyrimidine] | 667 | 783 |  |  |  |  | 3.77 | 
C[C@H]1CCN1c1nc2c(c(-c3ccn(C)n3)n1)CCC2 [Example 17, (S)-4-(1-methyl-1H-pyrazol-3-yl)-2-(2-methylazetidin-1-yl)-6,7-dihydro-5H-cyclopenta[d]pyrimidine] | 193 | 252 |  |  |  |  | 4.69 | 
C[C@H]1CCN1c1nc2c(c(-c3cn[nH]c3)n1)CCC2 [Example 19, (S)-2-(2-methylazetidin-1-yl)-4-(1H-pyrazol-4-yl)-6,7-dihydro-5H-cyclopenta[d]pyrimidine] | 33.2 | 38.6 |  |  |  |  | 4.88 | 
C[C@H]1CCN1c1nc2c(c(-c3ccnn3C)n1)CCC2 [Example 20, (S)-4-(1-methyl-1H-pyrazol-5-yl)-2-(2-methylazetidin-1-yl)-6,7-dihydro-5H-cyclopenta[d]pyrimidine] | 156 | 146 |  |  |  |  | 4 | 
C[C@H]1CCN1c1nc2c(c(-c3ccccn3)n1)CCC2 [Example 21, (S)-2-(2-methylazetidin-1-yl)-4-(pyridin-2-yl)-6,7-dihydro-5H-cyclopenta[d]pyrimidine] | 292 | 367 |  |  |  |  | 1.73 | pKa [6, 10]: 4.48
C[C@H]1CCN1c1nc2c(c(-c3ccc(N4CCNCC4)cc3)n1)CCC2 [Example 50, (S)-2-(2-methylazetidin-1-yl)-4-(4-(piperazin-1-yl)phenyl)-6,7-dihydro-5H-cyclopenta[d]pyrimidine] | 27.5 | 18.2 |  |  |  |  | 4.8 | pKa [6, 10]: 8.71
C[C@H]1CCN1c1nc2c(c(-c3cn4cnc(C(=O)O)c4s3)n1)CCC2 [Example 118, (S)-2-(2-(2-methylazetidin-1-yl)-6,7-dihydro-5H-cyclopenta[d]pyrimidin-4-yl)imidazo[5,1-b]thiazole-7-carboxylic acid] | 19.7 | 28.8 |  |  |  |  | 2.87 | pKa [6, 10]: 4.22
C[C@H]1[C@H](O)CN1c1nc(-c2ccc(C(N)=O)cc2)c2c(n1)C(F)(F)CC2 [Example 129, 4-(7,7-difluoro-2-((2S,3R)-3-hydroxy-2-methylazetidin-1-yl)-6,7-dihydro-5H-cyclopenta[d]pyrimidin-4-yl)benzamide] | 6.4 | 14 | 36.7 | 18.8 | 13200 | 80.8 |  | 
C[C@H]1[C@H](O)CN1c1nc2c(c(-c3ccc(C(N)=O)cc3)n1)CCC2 [Example 197, 4-[2-[(2S,3R)-3-hydroxy-2-methyl-azetidin-1-yl]-6,7-dihydro-5H-cyclopenta[d]pyrimidin-4-yl]benzamide] | 51.6 | 65.5 | 191 | 120 | 5920 | 379 |  | 
C[C@H]1CCN1c1nc2c(c(-c3ccc(C(N)=O)c(F)c3)n1)CCC2 [Example 305, (S)-2-fluoro-4-(2-(2-methylazetidin-1-yl)-6,7-dihydro-5H-cyclopenta[d]pyrimidin-4-yl)benzamide] | 38.9 | 61.3 |  |  |  |  | 4.15 | 
C[C@H]1[C@H](O)CN1c1nc(-c2ccc3c(=O)[nH]ccc3c2)c2c(n1)C(F)(F)CC2 [Example 318, 6-(7,7-difluoro-2-((2S,3R)-3-hydroxy-2-methylazetidin-1-yl)-6,7-dihydro-5H-cyclopenta[d]pyrimidin-4-yl)isoquinolin-1(2H)-one] | 1.6 | 6 | 16.1 | 9.3 | 350 | 9.1 |  | 
C[C@H]1[C@H](O)CN1c1nc(-c2cccc(CNS(C)(=O)=O)c2)c2c(n1)C(F)(F)CC2 [Example 324, N-(3-(7,7-difluoro-2-((2S,3R)-3-hydroxy-2-methylazetidin-1-yl)-6,7-dihydro-5H-cyclopenta[d]pyrimidin-4-yl)benzyl)methanesulfonamide] | 8.3 | 6.6 | 59.9 | 19 | 5800 | 72.3 |  | 
C[C@H]1[C@H](O)CN1c1nc(-c2ccc3c(c2)O[C@H](CO)CNC3=O)c2c(n1)C(F)(F)CC2 [Example 705, (S)-8-(7,7-difluoro-2-((2S,3R)-3-hydroxy-2-methylazetidin-1-yl)-6,7-dihydro-5H-cyclopenta[d]pyrimidin-4-yl)-2-(hydroxymethyl)-3,4-dihydrobenzo[f][1,4]oxazepin-5(2H)-one] |  |  | 55.2 | 52.4 | 8910 | 630 |  | IC50 [1]: 3.2 nM
C[C@H]1[C@H](O)CN1c1nc(-c2cc(F)c3c(c2)OCCNC3=O)c2c(n1)C(F)(F)CC2 [Example 746, 8-[7,7-difluoro-2-[(2S,3R)-3-hydroxy-2-methyl-azetidin-1-yl]-5,6-dihydrocyclopenta[d]pyrimidin-4-yl]-6-fluoro-3,4-dihydro-2H-1,4-benzoxazepin-5-one] |  |  | 76.8 | 49.2 | 1070 | 108 |  | IC50 [1]: 7.4 nM; IC50 [2]: 46.7 nM
C[C@H]1CCN1c1nc(-c2ccc(C3(N)CS(=O)(=O)C3)cc2)c2c(n1)C(F)(F)CC2 [Example 769, (S)-3-amino-3-(4-(7,7-difluoro-2-(2-methylazetidin-1-yl)-6,7-dihydro-5H-cyclopenta[d]pyrimidin-4-yl)phenyl)thietane 1,1-dioxide] |  |  | 18.4 | 6.7 | 19100 | 3.1 |  | IC50 [1]: 0.8 nM
C[C@H]1[C@H](F)CN1c1nc(-c2ccc(C3(N)CS(=N)(=O)C3)cc2)c2c(n1)C(F)(F)CC2 (stereo partly drawn) [Example 796] | 1.8 |  |  |  |  |  |  | 1st pKa [6]: 4.8
